Data set [1] has as its system E. coli K-12. The note with it: E. coli K-12, literature values; cited from earlier work.
Data set [2] has as its system HS-5 cells. In words: Cell viability assay (MTT), HS-5. Type of data set: cell-based, human. The note with it: 24 hours.
For data set [3], the system named is E. coli (K-12) lysate. Nature of the data set: Hydrolysis assay with E. coli lysate. It counts as in vitro ADME. The note with it: compound 200 μM. Here is the method: (§1) Hydrolysis assay: Wild-type E. coli strains (K12) were harvested by centrifugation and the cell pellets were lysed using a sonic device. After centrifugation, the supernatant was collected and the proteinase inhibitor was added in the E. coli lysate. The concentration of E. coli lysate was normalized by the fluorescence intensity of 5-carboxyfluorescein diacetate (CFDA). Briefly, different concentrations of CES (4 U/mL, 2 U/mL, 1 U/mL, 0.5 U/mL, 0.25 U/mL, 0.125 U/mL, 0.0625 U/mL, 0.03125 U/mL, 0.015625 U/mL and 0 U/mL) and different amount of E. coli lysates were prepared in PBS buffer. Followed by, 25 μM of CFDA was added in and incubated at room temperature for 1 hour. Then the fluorescence was tested to draw a fluorescence-concentration dependent curve for figuring out the concentration of E. coli lysates. Solutions of CLsuGG (200 μM) were prepared in pH 7.4 PBS buffer. CES and E. coli lysate (0.1 U/mL) were added and incubated with above solutions at 37° C. for 24 hours. At different time points, the solution was taken out, extracted with an equal volume of butanol, concentrated to dryness, and resuspended with butanol for HPLC analysis. HPLC was performed with Agilent 1100 Series Liquid Chromatograph equipped with an XTerra C18 reverse phase column and Variable Wavelength Detector. The hydrolyzed mixture resuspended in 1 mL of butanol was injected to HPLC mobile phase (0.1% trifluoroacetic acid, the starting ratio: 10% acetonitrile and 90% water). The system was run at a flow rate of 10 mL/min.
as §1, with “analysis.” for “analysis. HPLC was performed with Agilent 1100 Series Liquid Chromatograph equipped with an XTerra C18 reverse phase column and Variable Wavelength Detector. The hydrolyzed mixture resuspended in 1 mL of butanol was injected to HPLC mobile phase (0.1% trifluoroacetic acid, the starting ratio: 10% acetonitrile and 90% water). The system was run at a flow rate of 10 mL/min.”

In data set [4] the test system is esterase (bioH, yjfP, frsA, ybfF, yfbB, ypfH, yeiG, or yqiA) deletion mutants of E. coli. It counts as cell-based. Here is the method: Bacteria culture and inhibitory activity assay: Single esterase (BioH, YjfP, FrsA, YbfF, YfbB, YqiA, YeiG, or and YpfH) deletion mutants were purchased from Dharmacon Horizon Discovery (Cambridge, United Kingdom). The K12 wild-type E. coli strain (MG1655) was cultured in autoclaved LB medium (25 g/L LB broth/water) in a shaker-incubator overnight to stationary growth phase, and then sub-cultured in the same medium after dilution to OD600 of 0.05. Compounds were added at different concentrations. The mixture of bacteria and compounds were placed (200 μL/well) into 96-well clear flat bottom plates. In all plates, the OD600 was measured before and after 16 hour incubation at 37° C.
Bacteria culture and inhibitory activity assay: Single esterase (bioH, frsA, ybfF, yfbB, yqiA, yeiG, or ypfH) deletion mutants, bacterial transporter (ydgR, fepA and ompF) deletion mutants and the efflux pump (acrA) deletion mutant were all purchased from Dharmacon Horizon Discovery (Cambridge, United Kingdom). The K12 wild-type E. coli strain (MG1655) was cultured in autoclaved LB medium (25 g/L LB broth/water) in a shaker-incubator overnight to stationary growth phase, and then sub-cultured in the same medium after dilution to OD600 of 0.05. Compounds were added at different concentrations. The mixture of bacteria and compounds were placed (200 μL/well) into 96-well clear flat bottom plates. In all plates, the OD600 was measured before and after a 16 hour incubation at 37° C.

Data set [5] relates to double esterase (BioH and YjfP) deletion mutant of E. coli. Nature of the data set: Antibacterial activity against double esterase deletion mutant. Type of data set: cell-based. Here is the method:
(§2) Bacteria culture and inhibitory activity assay: Single esterase (BioH, YjfP, FrsA, YbfF, YfbB, YqiA, YeiG, or and YpfH) deletion mutants were purchased from Dharmacon Horizon Discovery (Cambridge, United Kingdom). […] Compounds were added at different concentrations.
To examine the roles of different intrabacterial esterases on the hydrolysis of CLsuGG, the activities of CLsuGG against eight E. coli mutants that have one of bacterial esterase genes (i.e., BioH, YjfP, FrsA, YbfF, YeiG, YfbB, YpfH or YqiA) deleted was measured. […] To confirm the role of intrabacterial esterases, a double mutant E. coli was generated, with the deletion of BioH and YjfP genes (FIGS. 5C-5D). […] These studies confirm that, after CLsuGG enters E. coli, various esterases in bacterial cytoplasm rapidly convert CLsuGG to the active antibiotic agent (i.e., CL).

Data set [6] can be described thus: Water solubility. Type of data set: physicochemical.
The test system of data set [7] is carboxylesterase (CES). In words: Hydrolysis assay with exogenous carboxylesterase. It counts as in vitro ADME, porcine. The note with it: CES 0.1 U/mL.
Source text: Experimental materials and instruments. All the solvents and chemical reagents were used directly as received from the commercial sources without further purification unless otherwise stated. Carboxylesterase (CES) from porcine liver was purchased from Sigma-Aldrich (lyophilized powder, >15 units/mg solid; Unit definition: One unit will hydrolyze 1.0 μmole of ethyl butyrate to butyric acid and ethanol per min at pH 8.0 at 25). CLsuGG, CLsuG, CLsuGGG were purified with Agilent 1100 Series Liquid Chromatography system, equipped with an XTerra C18 RP column and Variable Wavelength detector.
as §1, with “Briefly, different concentrations of CES (4 U/mL, 2 U/mL, 1 U/mL, 0.5 U/mL, 0.25 U/mL, 0.125 U/mL, 0.0625 U/mL, 0.03125 U/mL, 0.015625 U/mL and 0 U/mL) and different amount of E. coli lysates were prepared in PBS buffer. Followed by, 25 μM of CFDA was added in and incubated at room temperature for 1 hour.” left out, “CES and E. coli lysate (0.1 U/mL) were added and incubated with above solutions at 37° C. for 24 hours.” left out

The subject of data set [8] is HepG2 cells. In words: Cell viability assay (MTT), HepG2. Type of data set: cell-based. The note with it: 20 μM, 24 hours.
Data set [9] relates to HEK293 cells. Nature of the data set: Cell viability assay (MTT), HEK293. The note with it: 20 μM, 24 hours.
Data set [10] relates to wild type E. coli strain (K-12). Nature of the data set: Bacteria culture and inhibitory activity assay (MIC). Type of data set: cell-based. Here is the method: as §2
Compounds were added at different concentrations.

The subject of data set [11] is YdgR transporter knockout mutants of E. coli. Nature of the data set: Antibacterial activity against YdgR transporter knockout mutant. It counts as cell-based. The note with it: YdgR mutant versus wild-type E. coli. As for the experimental part: as §2
To verify whether bacterial oligopeptide transporters are involved in the uptake of CLsuGG, the activities of CLsuGG against the YdgR mutant and wild-type E. coli was compared (FIG. 4A). The deletion of YdgR, an inner membrane (IM) proton-coupled transporter for uptaking di- and tripeptides (Prabhala et al., “The Prototypical Proton-Coupled Oligopeptide Transporter YdgR from Escherichia coli Facilitates Chloramphenicol Uptake into Bacterial Cells,” J. Biol. Chem. 293(3):1007-1017 (2018), which is hereby incorporated by reference in its entirety), indeed rescues the bacteria, i.e., increasing cell viability for about 10%.

In brackets after ≈: the same amount, converted by molar mass. Entries after “also recorded” stand apart in the source; their conditions may differ.

As usually defined, the MIC is the lowest concentration that inhibits growth of the organism.

In the case of `COc1cc(Cc2cnc(N)nc2N)cc(OC)c1OC` [trimethoprim], in data set [1], the MIC is 1 µg/mL (≈ 3.44 µM). Further, in data set [2] (around MIC values (0.5 μM)), the “cytotoxicity of control compounds against HS-5 cells” value was “relatively low cytotoxicity”.
Regarding `O=C(O)CNC(=O)CNC(=O)CCC(=O)OCC(NC(=O)C(Cl)Cl)C(O)c1ccc([N+](=O)[O-])cc1` (centres unmarked) [CLsuGG], the “apparent first-order rate constant of hydrolysis” value was -1.868 h⁻¹ in [3] (E. coli lysate 0.1 U/mL, pH 7.4 PBS, 37° C.) and -0.443 h⁻¹ in data set [7] (compound 200 μM). Further, the figures for the “time to complete hydrolysis” value in data set [3] (intrabacterial esterases 0.1 U/mL) and in data set [7] were at most 2 h and “more than 12 hours”, respectively. For the same molecule, the “reduction of antibacterial activity by single esterase gene deletion” value in data set [4] is recorded as “slightly”. For the same molecule, the “antibacterial activity relative to the activity against wild type E. coli” value in data set [5] was 50%. In data set [6], the water solubility result is “soluble”. Moreover, the conversion entry in data set [7] (after 2 hours) is “around 70%”. Besides, in [8], the “cytotoxicity / cell viability of HepG2 cells” value was “hardly altered the cytotoxicity of CL”. The “cytotoxicity / cell viability of HEK293 cells” value in data set [9] is on record as “hardly altered the cytotoxicity of CL”. The “Effect of addition of CES on the MIC value” in data set [10] (exogenous CES) is recorded as “hardly affected”. Also, the “MIC (μM)” value in [10] (wild type E. coli (K-12)) stood at 20 µM (≈ 10.7 µg/mL). For the same molecule, the “MIC (μg/mL)” value in data set [10] (wild type E. coli (K-12)) is 10.7 µg/mL (≈ 19.9 µM). In [11], the “increase of cell viability by deletion of YdgR” value is reported as “about 10%”. Also, the “cytotoxicity / cell viability of HS-5 cells” value in data set [2] (20 μM) was “largely innocuous; also recorded: reduced toxicity”.
